Data on six molecules can be found in article PMC12670405, “Second-Generation AURKA-Targeting PROTACs: Structural Optimization toward in Vivo Degradation in Neuroblastoma” (Journal of Medicinal Chemistry, 2025).

Like-named read-outs stand apart in the source and are kept apart here.

A short description of one data set: Plasma stability assay. In kind it is in vitro ADME, CD-1 mouse. Conditions: for half-life at 1 μM: read-out: plasma t1/2. How it is done:
(§1) Plasma and metabolic stability tests were performed by Eurofins Discovery. For the plasma stability assay, test compounds were incubated in CD-1 mouse plasma for 0, 0.5, 1, 1.5, and 2 h at 37 °C at a concentration of 1 μM. For the metabolic stability assay, test compounds were incubated at 37 °C in either (1) CD-1 mouse liver microsomes (MLM) (0.1 mg/mL) at a concentration of 0.1 μM for 0, 15, 30, 45, and 60 min or (2) CD-1 mouse hepatocytes (MH) (0.7 million viable cells/mL) at a concentration of 1 μM for 0, 0.5, 1, 1.5, and 2 h. At the respective time points, acetonitrile was added to the incubation mixture followed by centrifugation. Samples were analyzed by HPLC-MS/MS and peak areas were recorded for each analyte. Compound stability, expressed as the percentage of parent compound remaining, was calculated by comparing the peak area of the compound at each time point relative to that of the 0h time point. Percentage compound remaining is plotted as a function of time as a logarithmic curve. Half-life (t 1/2) is estimated from the slope of the initial linear range of the curve, assuming first-order kinetics. […] Both plasma and metabolic assay experiments were performed once with 2 replicate samples each.

A further data set has as its system NGP. Nature of the data set: IncuCyte live-cell imaging, antiproliferative effect. In kind it is cell-based. Conditions: Homo sapiens, 72 h. The text has this:
Human neuroblastoma cell lines NGP, IMR-32, SJNB-8, SK-N-BE(2)-C, SJNB-1, SK-N-SH and SK-N-AS, as well as benign immortalized cell lines RPE and HEK293T were either bought commercially or obtained through research laboratories. […] Screening for mycoplasma contamination occurred routinely on the cells. Human neuroblastoma cell lines SH-SY5Y_shABCB1 & SH-SY5Y_shNTC were generated by transduction with pLKO.1-ABCB1_TRCN0000059683 shRNA (Sigma MISSION SHCLND) or pLKO.1-puro NT shRNA (Sigma MISSION SHC002) vectors respectively (Supplementary Table S6), packaged using Lenti-X293T (Clontech). Transduced cells were selected with 2 μg/mL puromycin. These cells were cultured in DMEM 4.5 g/L D-Glucose, L-Glutamine and 110 mg/L Sodium Pyruvate (Gibco, #11995065) supplemented with 10% fetal bovine serum, 1× Antibiotic-Antimycotic solution (Sigma-Aldrich, #A5955) and 1× MEM nonessential amino acids (Sigma-Aldrich, #M7145). Incubation of all cells occurred at 37 °C and 5% CO2.
Neuroblastoma cells were seeded in 384-well plates at different densities ranging from 1200 to 5000 cells/well and allowed to adhere overnight. RPE and HEK293T were seeded at 200 and 600 cells/well, respectively. Compound treatment was performed using the D300e Digital Dispenser (Tecan) in duplicate or triplicate and cell confluency was monitored over time using the IncuCyte Live-cell imaging system (Sartorius). […] Mean normalized confluences were calculated from 3 individual experiments.
All dose–response curves were computed on GraphPad Prism using the Variable Slope (four parameters) equation. Absolute half-maximal degradation (DC50), growth inhibitory (GI50) and enzymatic inhibitory (IC50) concentrations, as well as inhibition constants (Ki) were derived from dose–response curves via interpolation. Statistical tests were performed on GraphPad Prism and detailed in the figure legends. Unless otherwise stated, “n” in the figure legends indicates the number of independent experiments conducted at different times.

A further data set addresses T1, AURKA (Homo sapiens, UniProt O14965).
T1 sequence (O14965 1-403): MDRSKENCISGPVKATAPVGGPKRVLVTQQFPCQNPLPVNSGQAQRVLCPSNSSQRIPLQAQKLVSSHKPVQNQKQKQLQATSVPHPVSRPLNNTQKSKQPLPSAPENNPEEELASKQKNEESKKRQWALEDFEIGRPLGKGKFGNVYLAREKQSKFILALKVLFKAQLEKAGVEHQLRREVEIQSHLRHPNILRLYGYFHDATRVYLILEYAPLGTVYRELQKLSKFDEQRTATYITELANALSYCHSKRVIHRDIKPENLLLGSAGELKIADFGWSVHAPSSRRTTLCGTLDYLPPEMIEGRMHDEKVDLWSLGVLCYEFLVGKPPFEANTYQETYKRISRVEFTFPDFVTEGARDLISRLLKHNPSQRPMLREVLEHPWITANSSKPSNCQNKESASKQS
Nature of the data set: AURKA degradation, Simple Western.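 On AURKA Degradation 24h @1000nM: measured in NGP neuroblastoma cells.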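 On AURKA Degradation 24h @100nM: measured in NGP neuroblastoma cells.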 It is filed as cell-based. The conditions noted are these: for pDC50: AURKA degradation; for DC50: read-out: AURKA DC50. Also on record: Representative Western blot showing levels of endogenous proteins MDR1, MYCN, AURKA, and CRBN in untreated cell lines; endogenous in cells; host or cells: NGP, IMR-32, SJNB-8, SK-N-BE(2)-C, SK-N-SH, SK-N-AS, SJNB-1, RPE, HEK293T. The method, then: Cells were seeded in T-25 flasks at different densities ranging from 1 to 2 million cells per flask and allowed to adhere for 1–2 days. In experiments involving compound treatment, this was done by medium replacement containing the compound(s) of interest in their corresponding concentrations. In competition binding experiments, cells were first pretreated with an excess of MK-5108, thalidomide or MG-132 for 1 h by shaking gently at room temperature prior to addition of SK4454 or SK5527. All samples were normalized to contain the same percentage of DMSO as the negative DMSO controls. Cells were harvested on ice at their respective time points by scraping, washed with ice-cold PBS to collect remaining cells, and centrifuged (2500 rpm, 4 °C). A second washing and centrifugation step was performed prior to collection of the final cell pellets which were then snap-frozen in liquid nitrogen and kept frozen at −80 °C until further processing. Lysis of cell pellets occurred in cold RIPA buffer (0.5% w/v Sodium Deoxycholate, 150 mM NaCl, 50 mM TrisHCl pH 7.5, 0.1% w/v SDS, 1% w/v NP-40) supplemented with protease and phosphatase inhibitors (Roche, #11836145001, #04906845001) by rotating gently at 4 °C for 1h, followed by a centrifugation step for 10 min (10,000 rpm, 4 °C). The supernatant was collected and concentrations of the obtained protein lysates were measured using the Pierce BCA Protein Assay Kit (Thermo Fisher Scientific, #23227).
Simple Western analyses were performed with the Wes instrument (Bio-Techne) using the 12–230 kDa Wes Separation module and the EZ standard pack reagent 1 (Biotechne, #SM-W001, #PS-ST01EZ-8) following the manufacturer’s protocol. Protein lysates were loaded at 0.8 μg/μL under denaturing conditions (0.2 μg/μL for MYCN detection). Chemiluminescence peaks were generated by the Compass Software (Bio-Techne) and the area under the peaks calculated using the Gaussian fit method. Per lane, quantified data were always normalized to that of the loading control (Vinculin) prior to calculating fold changes relative to the negative DMSO control. Mean fold changes are calculated from 3 individual experiments. A list of the primary and secondary antibodies used can be found in the Supporting Information (Supplementary Table S7).
Graphs were generated using GraphPad Prism Software (version 10.1.2) or RStudio (R-4.3.2). All dose–response curves were computed on GraphPad Prism using the Variable Slope (four parameters) equation. Absolute half-maximal degradation (DC50), growth inhibitory (GI50) and enzymatic inhibitory (IC50) concentrations, as well as inhibition constants (Ki) were derived from dose–response curves via interpolation. Statistical tests were performed on GraphPad Prism and detailed in the figure legends. Unless otherwise stated, “n” in the figure legends indicates the number of independent experiments conducted at different times.

Data set [1] can be described thus: Metabolic stability in mouse liver microsomes (MLM). The conditions noted are these: CD-1. It is filed as in vitro ADME, CD-1 mouse. The method, then:
as §1

Data set [2] can be described thus: Metabolic stability in mouse hepatocytes (MH). It is filed as in vitro ADME, CD-1 mouse. Conditions: CD-1. How it is done: as §1

Regarding `O=C1CCN(c2ccc(N3CCN(CC4CCN(C(=O)[C@]5(Cc6cccc(Nc7nccs7)n6)CC[C@@H](Oc6cccc(Cl)c6F)CC5)C4)CC3)nc2)C(=O)N1` (stereo partly shown) [PROTAC 25], in the data set “Plasma stability assay” (CD-1, mouse, plasma), the half-life at 1 μM was greater than 2 h. Besides, in the data set on NGP (read-out: GI50 72h, 72h), the GI50 came out at 33 nM. Besides, the GI50 in the data set with NGP (read-out: pGI50 (converted)) was 32.4 nM. For the same molecule, at AURKA, the “AURKA Degradation 24h @100nM” value is 90, the “AURKA Degradation 24h @1000nM” value is reported as 87, the pDC50 is 8,47 and the DC50 was determined as 3.4 nM. This molecule gave a microsomal CLint at 0.1 μM in data set [1] of 426 µL/min/mg. Also, the hepatocyte CLint at 1 μM in data set [2] turned out to be 13.6 µL/min/1e6 cells.
Regarding `O=C1CCC(N2C(=O)c3cccc(N4CCN(CCOCCOCCNC(=O)[C@]5(Cc6cccc(Nc7nccs7)n6)CC[C@@H](Oc6cccc(Cl)c6F)CC5)CC4)c3C2=O)C(=O)N1` (stereo partly shown) [PROTAC 1], the half-life at 1 μM in the data set “Plasma stability assay” (CD-1, mouse, plasma) is greater than 2 h. Further, in the data set on NGP (read-out: GI50 72h, 72h), the GI50 worked out at 63 nM. Moreover, the GI50 in the data set on NGP (read-out: pGI50 (converted)) is 63.1 nM. Besides, on AURKA, the “AURKA Degradation 24h @100nM” value was determined as 72 and the “AURKA Degradation 24h @1000nM” value amounted to 66. This molecule showed a microsomal CLint at 0.1 μM in data set [1] of 1480 µL/min/mg.
Turning to `O=C1CCN(c2ccc(C3CCN(C4CN(C(=O)[C@]5(Cc6cccc(Nc7nccs7)n6)CC[C@@H](Oc6cccc(Cl)c6F)CC5)C4)CC3)nc2)C(=O)N1` [PROTAC 28], the half-life at 1 μM in the data set “Plasma stability assay” (CD-1, mouse, plasma) is greater than 2 h. The GI50 with NGP (read-out: GI50 72h, 72h) turned out to be 48 nM. Further, the GI50 in the data set on NGP (read-out: pGI50 (converted)) was 47.9 nM. Moreover, at AURKA, the “AURKA Degradation 24h @100nM” value was determined as 80, the “AURKA Degradation 24h @1000nM” value worked out at 78, the pDC50 is listed as 8,52 and the DC50 came out at 3 nM. Also, the microsomal CLint at 0.1 μM in data set [1] stood at 367 µL/min/mg. Further, the hepatocyte CLint at 1 μM in data set [2] worked out at 13 µL/min/1e6 cells.
Consider `O=C1CCN(Cc2ccc(C3CCN(C4CN(C(=O)[C@]5(Cc6cccc(Nc7nccs7)n6)CC[C@@H](Oc6cccc(Cl)c6F)CC5)C4)CC3)nc2)C(=O)N1` [PROTAC 22], for which the half-life at 1 μM in the data set “Plasma stability assay” (CD-1, mouse, plasma) was greater than 2 h. In addition, the GI50 in the data set with NGP (read-out: GI50 72h, 72h) amounted to 46 nM. The GI50 in the data set with NGP (read-out: pGI50 (converted)) was 46.8 nM. Besides, on AURKA, the “AURKA Degradation 24h @100nM” value is 86 and the “AURKA Degradation 24h @1000nM” value was determined as 87. In data set [1], the microsomal CLint at 0.1 μM was 693 µL/min/mg. The hepatocyte CLint at 1 μM in data set [2] was less than 4.1 µL/min/1e6 cells.
As for `Cc1cc(Nc2ccc(F)c(CC3(C(=O)N4CCC(F)(CN5CCC(c6ccc(N7CCC(=O)NC7=O)cn6)CC5)CC4)CCN(Cc4cccc(Cl)c4F)CC3)n2)n[nH]1` [PROTAC 37], the half-life at 1 μM in “Plasma stability assay” (CD-1, mouse, plasma) was greater than 2 h. The GI50 is 45 nM in the data set with NGP (read-out: GI50 72h, 72h) and 44.7 nM in the data set on NGP (read-out: pGI50 (converted)). Also, at AURKA, the “AURKA Degradation 24h @100nM” value was 84. For the same molecule, the “AURKA Degradation 24h @1000nM” value on AURKA is listed as 86. This molecule also displayed a microsomal CLint at 0.1 μM in data set [1] of 617 µL/min/mg. The molecule further registered a hepatocyte CLint at 1 μM in data set [2] of 4.5 µL/min/1e6 cells.
`O=C1CCC(N2C(=O)c3ccc(N4CCN(CCNC(=O)[C@]5(Cc6cccc(Nc7nccs7)n6)CC[C@@H](Oc6cccc(Cl)c6F)CC5)CC4)cc3C2=O)C(=O)N1` (stereo partly shown) [PROTAC 4]: the half-life at 1 μM in “Plasma stability assay” (CD-1 mouse plasma, 1 μM, 37 °C) was greater than 2 h. The “plasma t1/2” value in “Plasma stability assay” (plasma) is greater than 2 h. For the same molecule, the GI50 in the data set on NGP (read-out: GI50 72h, 72h) was 44 nM. For the same molecule, in the data set with NGP (read-out: pGI50 (converted)), the GI50 was 44.7 nM. Also, on AURKA, the “AURKA Degradation 24h @100nM” value worked out at 85, the “AURKA Degradation 24h @1000nM” value was 93, the pDC50 is on record as 8,32 and the DC50 amounted to 4.8 nM. In addition, at AURKA (NGP, 24 h treatment), the Dmax was determined as 97% and the DC50 was determined as 5 nM. In addition, the microsomal CLint at 0.1 μM in data set [1] worked out at 656 µL/min/mg.
